Results published in PMC2217334 (The Journal of General Physiology, 2003).

Target: human cardiac Na+ channel alpha subunit (SCN5A, hH1) (Homo sapiens, UniProt Q14524)
Assay: whole-cell patch clamp, use-dependent block at […] external
Assay type: cell-based
Details: read-out: % use-dependent block at 10 μM

Chain of human cardiac Na+ channel alpha subunit (SCN5A, hH1) (Q14524 whole entry): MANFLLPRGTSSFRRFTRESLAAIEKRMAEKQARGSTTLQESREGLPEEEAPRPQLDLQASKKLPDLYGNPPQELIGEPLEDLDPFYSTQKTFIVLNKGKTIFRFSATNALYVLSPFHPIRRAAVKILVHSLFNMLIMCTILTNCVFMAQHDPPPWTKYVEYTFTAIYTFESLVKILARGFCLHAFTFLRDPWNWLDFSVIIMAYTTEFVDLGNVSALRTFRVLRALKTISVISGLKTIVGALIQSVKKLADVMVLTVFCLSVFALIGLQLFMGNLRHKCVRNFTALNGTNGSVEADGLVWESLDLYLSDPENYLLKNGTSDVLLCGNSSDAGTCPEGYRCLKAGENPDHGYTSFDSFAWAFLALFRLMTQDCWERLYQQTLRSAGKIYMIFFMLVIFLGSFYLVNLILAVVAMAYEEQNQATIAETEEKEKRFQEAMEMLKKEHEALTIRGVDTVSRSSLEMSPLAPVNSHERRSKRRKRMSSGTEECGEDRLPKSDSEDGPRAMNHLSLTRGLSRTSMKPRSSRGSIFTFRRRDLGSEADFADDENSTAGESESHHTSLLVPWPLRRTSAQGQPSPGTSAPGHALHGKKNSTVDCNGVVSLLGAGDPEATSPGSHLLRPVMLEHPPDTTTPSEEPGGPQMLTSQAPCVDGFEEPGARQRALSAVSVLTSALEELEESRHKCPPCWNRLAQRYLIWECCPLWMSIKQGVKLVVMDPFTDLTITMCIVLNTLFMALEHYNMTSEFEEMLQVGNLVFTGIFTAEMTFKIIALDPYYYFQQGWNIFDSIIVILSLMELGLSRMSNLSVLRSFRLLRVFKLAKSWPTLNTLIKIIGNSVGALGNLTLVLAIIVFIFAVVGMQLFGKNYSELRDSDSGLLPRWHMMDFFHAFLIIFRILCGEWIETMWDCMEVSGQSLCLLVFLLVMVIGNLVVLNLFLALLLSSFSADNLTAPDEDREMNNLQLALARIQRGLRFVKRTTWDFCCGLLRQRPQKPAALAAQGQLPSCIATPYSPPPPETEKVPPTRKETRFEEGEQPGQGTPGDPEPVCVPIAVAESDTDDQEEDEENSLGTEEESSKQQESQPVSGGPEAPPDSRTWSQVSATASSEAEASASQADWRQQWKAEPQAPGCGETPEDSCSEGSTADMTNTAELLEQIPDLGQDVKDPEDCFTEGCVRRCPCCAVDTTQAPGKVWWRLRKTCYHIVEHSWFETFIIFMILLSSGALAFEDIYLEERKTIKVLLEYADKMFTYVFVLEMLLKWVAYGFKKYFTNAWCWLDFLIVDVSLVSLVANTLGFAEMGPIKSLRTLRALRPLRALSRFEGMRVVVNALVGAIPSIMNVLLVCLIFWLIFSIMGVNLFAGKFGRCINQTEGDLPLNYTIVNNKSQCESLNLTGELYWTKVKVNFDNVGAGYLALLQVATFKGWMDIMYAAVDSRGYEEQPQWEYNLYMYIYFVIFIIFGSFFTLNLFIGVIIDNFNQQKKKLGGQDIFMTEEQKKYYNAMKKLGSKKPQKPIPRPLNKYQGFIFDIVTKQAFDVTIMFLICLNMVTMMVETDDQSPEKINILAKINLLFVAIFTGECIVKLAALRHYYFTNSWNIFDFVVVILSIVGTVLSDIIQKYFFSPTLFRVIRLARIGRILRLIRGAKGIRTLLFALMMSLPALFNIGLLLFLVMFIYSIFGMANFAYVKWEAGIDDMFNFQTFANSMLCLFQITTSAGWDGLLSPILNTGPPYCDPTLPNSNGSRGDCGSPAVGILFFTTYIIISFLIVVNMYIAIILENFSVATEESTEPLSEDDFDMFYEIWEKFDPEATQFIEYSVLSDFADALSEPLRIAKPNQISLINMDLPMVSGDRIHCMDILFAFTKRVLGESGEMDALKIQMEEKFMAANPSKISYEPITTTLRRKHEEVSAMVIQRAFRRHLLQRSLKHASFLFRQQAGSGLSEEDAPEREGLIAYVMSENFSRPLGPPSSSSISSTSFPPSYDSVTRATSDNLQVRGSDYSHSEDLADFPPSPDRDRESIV
Chain of human cardiac Na+ channel alpha subunit (SCN5A, hH1) (Q07699 19-218 partner): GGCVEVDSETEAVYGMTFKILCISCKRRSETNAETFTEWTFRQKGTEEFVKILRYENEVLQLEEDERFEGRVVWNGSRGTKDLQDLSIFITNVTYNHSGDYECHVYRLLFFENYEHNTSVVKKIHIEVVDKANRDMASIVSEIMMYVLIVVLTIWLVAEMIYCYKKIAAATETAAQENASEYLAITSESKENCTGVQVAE

Q: For `O=C(NCC1CCCCN1)c1cc(OCC(F)(F)F)ccc1OCC(F)(F)F` (stereo not shown) [flecainide], which inhibition at 10 µM is on record?
A: 67.3 ± 3.5%
